Key:
[1] = target: T1, SMYD3 (Homo sapiens (Human), UniProt Q9H7B4); assay: SMYD3 biochemical assay (SPA, 3H-SAM methylation of MEKK2 protein substrate)
Method in brief: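 Full-length native human SMYD3 (E. coli-expressed, tags removed) preincubated with compounds 30 min at room temperature, then reaction started with 3H-SAM and GST-tagged MEKK2 protein in 25 mM Tris-Cl pH 8.0, 1 mM TCEP, 0.005% BSG, 0.005% Tween 20. Quenched with unlabelled SAM (100 uM final); 3H-MEKK2 counted by SPA.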

[2] = target: T1, SMYD3; assay: SMYD3 cell assay (Trimethyl-MEKK2 In-Cell Western in 293T/17 cells); assay type: cell-based
Method in brief: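 In-Cell Western ratio of trimethyl-Lys260 MEKK2 to anti-flag signal; percent inhibition from DMSO and maximum-inhibition controls, IC50 by non-linear regression, triplicates.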

[3] = read-out: SMYD3 Biochem IC50 (μM)*
[4] = 293T/17 cells, read-out: SMYD3 Cell IC50 (μM)*
[5] = Table 1A, IC50 values are an average of n = 1 to n = 50, read-out: SMYD3 Cell IC50
[6] = Table 1A, IC50 values are an average of n = 1 to n = 50, read-out: SMYD3 Biochem IC50

T1 sequence (Q9H7B4 whole entry): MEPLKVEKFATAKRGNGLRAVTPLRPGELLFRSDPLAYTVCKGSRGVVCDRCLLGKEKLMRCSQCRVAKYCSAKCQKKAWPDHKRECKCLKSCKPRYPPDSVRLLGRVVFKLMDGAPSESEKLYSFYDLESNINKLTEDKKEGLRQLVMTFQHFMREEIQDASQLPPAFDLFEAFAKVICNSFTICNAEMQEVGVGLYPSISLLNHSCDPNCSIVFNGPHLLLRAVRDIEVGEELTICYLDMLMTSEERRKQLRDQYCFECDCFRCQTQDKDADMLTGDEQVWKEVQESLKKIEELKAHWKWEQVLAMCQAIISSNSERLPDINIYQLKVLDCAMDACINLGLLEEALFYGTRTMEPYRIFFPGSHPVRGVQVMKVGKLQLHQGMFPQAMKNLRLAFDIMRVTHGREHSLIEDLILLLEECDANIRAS

Structure (SMILES) | IC50 [1, 3] | IC50 [2, 4] | IC50 ([1]; read-out: SMYD3 Biochem IC50) | IC50 [2, 5] | IC50 [1, 6]
CC(C)CNc1ccc(S(=O)(=O)N2C3CCCC2CC(NC(=O)c2cc(C4CC4)on2)C3)cn1 (centres unmarked) [compound 465, 5-cyclopropyl-N-(9-((6-(isobutylamino)pyridin-3-yl)sulfonyl)-9-azabicyclo[3.3.1]nonan-3-yl)isoxazole-3-carboxamide] | 3.12 µM | 6.16 µM | – | – | –
CNc1ncccc1S(=O)(=O)N1CC[C@H](NC(=O)c2cc(C3CC3)on2)C[C@@H]1C [compound 467, 5-cyclopropyl-N-((2S,4S)-2-methyl-1-((2-(methylamino)pyridin-3-yl)sulfonyl)piperidin-4-yl)isoxazole-3-carboxamide] | 3.74 µM | 5.76 µM | – | – | –
C[C@H]1C[C@@H](NC(=O)c2cc(C3CC3)on2)CCN1S(=O)(=O)c1cccnc1NCCN [compound 475, N-((2S,4S)-1-((2-((2-aminoethyl)amino)pyridin-3-yl)sulfonyl)-2-methylpiperidin-4-yl)-5-cyclopropylisoxazole-3-carboxamide] | 0.0865 µM | 1.34 µM | – | – | –
C[C@H]1C[C@@H](NC(=O)c2cc(C3CC3)on2)CCN1S(=O)(=O)c1cccc(C(N)=O)c1 [compound 477, N-((2S,4S)-1-((3-carbamoylphenyl)sulfonyl)-2-methylpiperidin-4-yl)-5-cyclopropylisoxazole-3-carboxamide] | 0.932 µM | 3.26 µM | – | – | –
C[C@H]1C[C@@H](NC(=O)c2cc(C3CC3)on2)CCN1C(=O)N1CCN(Cc2ccccc2)CC1 [compound 478, N-((2S,4S)-1-(4-benzylpiperazine-1-carbonyl)-2-methylpiperidin-4-yl)-5-cyclopropylisoxazole-3-carboxamide] | > 10 µM | > 10 µM | – | – | –
NCCCS(=O)(=O)N1CCC(NC(=O)c2cc(C3CC3)on2)C[C@@H]1c1ccccc1 (stereo partly drawn) [compound 480, N-((2R)-1-((3-aminopropyl)sulfonyl)-2-phenylpiperidin-4-yl)-5-cyclopropylisoxazole-3-carboxamide] | 0.0658 µM | 2.24 µM | – | – | –
NCCCS(=O)(=O)N1CCC(NC(=O)c2cc(C3CC3)on2)C[C@H]1c1ccccc1 (stereo partly drawn) [compound 481, N-((2S)-1-((3-aminopropyl)sulfonyl)-2-phenylpiperidin-4-yl)-5-cyclopropylisoxazole-3-carboxamide] | 0.479 µM | 4.47 µM | – | – | –
C[C@H]1C[C@@H](NC(=O)c2cc(C3CC3)on2)CCN1S(=O)(=O)C1CCOC1 (stereo partly drawn) [compound 482, 5-cyclopropyl-N-((2S,4S)-2-methyl-1-((tetrahydrofuran-3-yl)sulfonyl)piperidin-4-yl)isoxazole-3-carboxamide] | 0.928 µM | 2.83 µM | – | – | –
C[C@H]1C[C@@H](NC(=O)c2cc(C3CC3)on2)CCN1S(=O)(=O)c1c[nH]cn1 [compound 483, N-((2S,4S)-1-((1H-imidazol-4-yl)sulfonyl)-2-methylpiperidin-4-yl)-5-cyclopropylisoxazole-3-carboxamide] | 0.533 µM | 2.13 µM | – | – | –
NCCCS(=O)(=O)N1[C@@H]2CC[C@H]1C[C@H](NC(=O)c1cc(C3CC3)on1)C2 [compound 484, N-((1R,3s,5S)-8-((3-aminopropyl)sulfonyl)-8-azabicyclo[3.2.1]octan-3-yl)-5-cyclopropylisoxazole-3-carboxamide] | 0.0792 µM | 1.44 µM | – | – | –
O=C(NC1CC2CCCC(C1)N2S(=O)(=O)CC1CCCNC1)c1cc(C2CC2)on1 (centres unmarked) [compound 488, 5-cyclopropyl-N-(9-((piperidin-3-ylmethyl)sulfonyl)-9-azabicyclo[3.3.1]nonan-3-yl)isoxazole-3-carboxamide] | – | – | 0.0451 µM | 0.857 µM | –
O=C(Nc1ccc(S(=O)(=O)N2[C@@H]3CC[C@H]2C[C@H](NC(=O)c2cc(C4CC4)on2)C3)cc1)c1ccncc1 [compound 489, 5-cyclopropyl-N-((1R,3s,5S)-8-((4-(isonicotinamido)phenyl)sulfonyl)-8-azabicyclo[3.2.1]octan-3-yl)isoxazole-3-carboxamide] | – | – | – | 6.66 µM | 5.42 µM
O=C1Cc2cc(S(=O)(=O)N3[C@@H]4CC[C@H]3C[C@H](NC(=O)c3cc(C5CC5)on3)C4)c(Cl)cc2N1 [compound 490, N-((1R,3s,5S)-8-((6-chloro-2-oxoindolin-5-yl)sulfonyl)-8-azabicyclo[3.2.1]octan-3-yl)-5-cyclopropylisoxazole-3-carboxamide] | – | – | – | > 10 µM | 9.23 µM
O=C(N[C@@H]1C[C@H]2CC[C@@H](C1)N2S(=O)(=O)c1cc2oc(=O)[nH]c2cc1Cl)c1cc(C2CC2)on1 [compound 491, N-((1R,3s,5S)-8-((5-chloro-2-oxo-2,3-dihydrobenzo[d]oxazol-6-yl)sulfonyl)-8-azabicyclo[3.2.1]octan-3-yl)-5-cyclopropylisoxazole-3-carboxamide] | – | – | – | > 10 µM | > 10 µM
O=C1Cc2cc(S(=O)(=O)N3[C@@H]4CC[C@H]3C[C@H](NC(=O)c3cc(C5CC5)on3)C4)ccc2N1 [compound 493, 5-cyclopropyl-N-((1R,3s,5S)-8-((2-oxoindolin-5-yl)sulfonyl)-8-azabicyclo[3.2.1]octan-3-yl)isoxazole-3-carboxamide] | – | – | – | 2.75 µM | 0.842 µM
O=C(N[C@@H]1C[C@H]2CC[C@@H](C1)N2S(=O)(=O)CCCN1CCOCC1)c1cc(C2CC2)on1 [compound 495, 5-cyclopropyl-N-((1R,3s,5S)-8-((3-morpholinopropyl)sulfonyl)-8-azabicyclo[3.2.1]octan-3-yl)isoxazole-3-carboxamide] | – | – | – | > 10 µM | > 10 µM
O=C(N[C@H]1C[C@H]2CC[C@@H](C1)N2S(=O)(=O)CCCN1CCOCC1)c1cc(C2CC2)on1 [compound 496, 5-cyclopropyl-N-((1R,3r,5S)-8-((3-morpholinopropyl)sulfonyl)-8-azabicyclo[3.2.1]octan-3-yl)isoxazole-3-carboxamide] | – | – | – | 0.854 µM | 0.162 µM
O=C(N[C@H]1CCN(S(=O)(=O)CCCN2CCOCC2)[C@@H](Cc2ccccc2)C1)c1cc(C2CC2)on1 [compound 497, N-((2S,4S)-2-benzyl-1-((3-morpholinopropyl)sulfonyl)piperidin-4-yl)-5-cyclopropylisoxazole-3-carboxamide] | – | – | – | > 10 µM | > 10 µM
O=C(N[C@H]1CCN(S(=O)(=O)CCCN2CCOCC2)[C@H](Cc2ccccc2)C1)c1cc(C2CC2)on1 [compound 498, N-((2R,4S)-2-benzyl-1-((3-morpholinopropyl)sulfonyl)piperidin-4-yl)-5-cyclopropylisoxazole-3-carboxamide] | – | – | – | > 10 µM | 9.96 µM
O=C(N[C@H]1CCN(S(=O)(=O)CCN2CCOCC2)[C@H](Cc2ccccc2)C1)c1cc(C2CC2)on1 [compound 499, N-((2R,4S)-2-benzyl-1-((2-morpholinoethyl)sulfonyl)piperidin-4-yl)-5-cyclopropylisoxazole-3-carboxamide] | – | – | – | > 10 µM | > 10 µM
CC(C)[C@@H]1C[C@H](NC(=O)c2cc(C3CC3)on2)CCN1S(=O)(=O)CCCN [compound 502, N-((2S,4R)-1-((3-aminopropyl)sulfonyl)-2-isopropylpiperidin-4-yl)-5-cyclopropylisoxazole-3-carboxamide] | – | – | – | > 10 µM | 0.766 µM
CC(C)[C@H]1C[C@H](NC(=O)c2cc(C3CC3)on2)CCN1S(=O)(=O)CCCN [compound 503, N-((2R,4R)-1-((3-aminopropyl)sulfonyl)-2-isopropylpiperidin-4-yl)-5-cyclopropylisoxazole-3-carboxamide] | – | – | – | > 10 µM | 1.06 µM
COCCN(C)c1ccc(S(=O)(=O)N2CC[C@H](NC(=O)c3cc(C4CC4)on3)C[C@H]2C)cn1 [compound 504, 5-cyclopropyl-N-((2R,4S)-1-((6-((2-methoxyethyl)(methyl)amino)pyridin-3-yl)sulfonyl)-2-methylpiperidin-4-yl)isoxazole-3-carboxamide] | – | – | – | > 10 µM | > 10 µM
COCCNc1ccc(S(=O)(=O)N2CC[C@@H](NC(=O)c3cc(C4CC4)on3)C[C@@H]2C)cn1 [compound 505, 5-cyclopropyl-N-((2S,4R)-1-((6-((2-methoxyethyl)amino)pyridin-3-yl)sulfonyl)-2-methylpiperidin-4-yl)isoxazole-3-carboxamide] | – | – | > 10 µM | > 10 µM | –
C[C@@H]1C[C@@H](NC(=O)c2cc(C3CC3)on2)CCN1S(=O)(=O)c1ccc(NCCN2CCOCC2)nc1 [compound 506, 5-cyclopropyl-N-((2R,4S)-2-methyl-1-((6-((2-morpholinoethyl)amino)pyridin-3-yl)sulfonyl)piperidin-4-yl)isoxazole-3-carboxamide] | – | – | – | > 10 µM | 3.97 µM
C[C@H]1C[C@H](NC(=O)c2cc(C3CC3)on2)CCN1S(=O)(=O)c1ccc(NCCN2CCOCC2)nc1 [compound 507, 5-cyclopropyl-N-((2S,4R)-2-methyl-1-((6-((2-morpholinoethyl)amino)pyridin-3-yl)sulfonyl)piperidin-4-yl)isoxazole-3-carboxamide] | – | – | – | > 10 µM | 5.54 µM
O=C(N[C@H]1C[C@H]2CC[C@@H](C1)N2S(=O)(=O)CC1CCNCC1)c1cc(C2CC2)on1 [compound 526, 5-cyclopropyl-N-((1R,3r,5S)-8-((piperidin-4-ylmethyl)sulfonyl)-8-azabicyclo[3.2.1]octan-3-yl)isoxazole-3-carboxamide] | – | – | – | 0.015 µM | 0.001 µM
O=C(N[C@H]1C[C@H]2CC[C@@H](C1)N2S(=O)(=O)N1CCNCC1)c1cc(C2CC2)on1 [compound 527, 5-cyclopropyl-N-((1R,3r,5S)-8-(piperazin-1-ylsulfonyl)-8-azabicyclo[3.2.1]octan-3-yl)isoxazole-3-carboxamide] | – | – | – | 0.032 µM | 0.003 µM
